From ChEMBL document CHEMBL4270597, “Donepezil-butylated hydroxytoluene (BHT) hybrids as Anti-Alzheimer's disease agents with cholinergic, antioxidant, and neuroprotective properties” (Eur J Med Chem, 2018) come the findings set out here.

Activity calls are given as the source filed them.

By inhibition is commonly meant the relative decrease from the control value, in per cent. The term half-life denotes the time needed for the level to fall by half in the phase considered.

Data set [1] deals with Mus musculus. The data set is described as follows: Reversal of scopolamine-induced memory impairment in ICR mouse assessed as increase in step-through latency time at 5 mg/kg, po administered for 10 consecutive days and 60 mins prior to training trial followed by scopolamine challenge at 30 mins post dose measured 24 hrs after training trial by passive avoidance test. The format is functional, organism-based.

The test system of data set [2] is BV-2. Kind of data set: Antineuroinflammatory activity in mouse BV2 cells assessed as inhibition of LPS-induced NO production at 10 to 30 uM after 24 hrs by Griess assay. The format is functional, cell-based.
The nature of data set [3]: Half life in Sprague-Dawley rat liver microsomes in presence of NADPH by UPLC/MS analysis. As to conditions: microsomes. For orientation: Liver microsomes are a subcellular fraction often used to study metabolism.
The nature of data set [4]: Antioxidant activity assessed as trolox equivalent of AAPH-induced radical scavenging activity preincubated for 15 mins followed by AAPH addition measured every minute for 120 mins by ORAC-FL based fluorescein assay. The format is functional.
Data set [5] has as its target Acetylcholinesterase (Homo sapiens, UniProt P22303). Kind of data set: Inhibition of human erythrocyte AChE at 100 uM using acetylthiocholine chloride as substrate incubated for 5 mins followed by substrate addition measured after 180 secs by Ellman's method relative to control. In general terms: Ellman's reagent forms a yellow product with free thiols.
The target in data set [6] is Acetylcholinesterase (Electrophorus electricus) (UniProt O42275). The data set is described as follows: Inhibition of electric eel AChE at 100 uM using acetylthiocholine chloride as substrate incubated for 5 mins followed by substrate addition measured after 180 secs by Ellman's method relative to control.
Acetylcholinesterase (Electrophorus electricus), sequence (O42275 24-633 limits assumed): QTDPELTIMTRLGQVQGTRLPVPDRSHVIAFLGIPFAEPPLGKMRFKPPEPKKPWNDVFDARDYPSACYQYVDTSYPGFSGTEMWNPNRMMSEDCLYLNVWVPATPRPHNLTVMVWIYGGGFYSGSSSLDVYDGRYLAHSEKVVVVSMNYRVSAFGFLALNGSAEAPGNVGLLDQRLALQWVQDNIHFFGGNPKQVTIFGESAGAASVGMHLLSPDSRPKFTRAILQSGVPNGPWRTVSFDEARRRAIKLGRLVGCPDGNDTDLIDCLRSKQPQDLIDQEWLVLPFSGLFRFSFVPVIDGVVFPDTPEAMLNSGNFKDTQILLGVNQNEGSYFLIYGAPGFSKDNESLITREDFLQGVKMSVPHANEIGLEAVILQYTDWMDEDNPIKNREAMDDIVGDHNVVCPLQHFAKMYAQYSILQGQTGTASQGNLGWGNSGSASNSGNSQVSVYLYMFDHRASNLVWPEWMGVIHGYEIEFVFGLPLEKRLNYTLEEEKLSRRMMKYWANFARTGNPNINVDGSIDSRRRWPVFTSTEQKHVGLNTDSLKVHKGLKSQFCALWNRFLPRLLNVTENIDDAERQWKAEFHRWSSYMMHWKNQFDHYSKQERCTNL
Data set [7] in a line: Antioxidant activity assessed as DPPH radical scavenging activity at 100 uM measured after 30 mins incubation in dark by UV-Visible spectrophotometric analysis relative to control. It counts as functional. (In general: The DPPH test is a chemical assay of radical scavenging.)
A short description of data set [8]: Antioxidant activity assessed as ABTS radical cation scavenging activity by measuring trolox equivalent antioxidant capacity measured at 6 mins. It counts as functional.
Data set [9] addresses Cholinesterase (Homo sapiens, UniProt P06276). The data set is described as follows: Inhibition of human serum BuChE at 100 uM using butyrylthiocholine iodide as substrate incubated for 5 mins followed by substrate addition measured after 180 secs by Ellman's method relative to control.
For data set [10], the target named is T1, Amine oxidase [flavin-containing] A (Homo sapiens, UniProt P21397).
T1 sequence (P21397 whole entry): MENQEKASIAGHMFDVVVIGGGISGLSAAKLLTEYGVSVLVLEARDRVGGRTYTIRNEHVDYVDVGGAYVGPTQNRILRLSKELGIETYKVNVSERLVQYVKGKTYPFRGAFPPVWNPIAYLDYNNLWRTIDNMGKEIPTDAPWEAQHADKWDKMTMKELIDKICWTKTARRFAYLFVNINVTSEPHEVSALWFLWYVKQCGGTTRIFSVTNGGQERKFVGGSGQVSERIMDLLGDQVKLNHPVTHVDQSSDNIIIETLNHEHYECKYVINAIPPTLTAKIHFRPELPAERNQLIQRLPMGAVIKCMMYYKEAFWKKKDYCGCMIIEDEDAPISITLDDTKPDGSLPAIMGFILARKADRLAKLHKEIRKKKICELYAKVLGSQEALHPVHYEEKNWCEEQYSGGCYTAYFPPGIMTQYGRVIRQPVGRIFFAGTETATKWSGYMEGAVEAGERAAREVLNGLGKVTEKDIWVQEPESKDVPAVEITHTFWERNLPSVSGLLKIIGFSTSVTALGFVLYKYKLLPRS
Kind of data set: Inhibition of human MAO-A at 100 uM using p-tyramine as substrate incubated for 15 mins followed by substrate addition measured for 20 mins by fluorescence assay relative to control.

The target in data set [11] is T2, Amine oxidase [flavin-containing] B (Homo sapiens, UniProt P27338).
T2 sequence (P27338 whole entry): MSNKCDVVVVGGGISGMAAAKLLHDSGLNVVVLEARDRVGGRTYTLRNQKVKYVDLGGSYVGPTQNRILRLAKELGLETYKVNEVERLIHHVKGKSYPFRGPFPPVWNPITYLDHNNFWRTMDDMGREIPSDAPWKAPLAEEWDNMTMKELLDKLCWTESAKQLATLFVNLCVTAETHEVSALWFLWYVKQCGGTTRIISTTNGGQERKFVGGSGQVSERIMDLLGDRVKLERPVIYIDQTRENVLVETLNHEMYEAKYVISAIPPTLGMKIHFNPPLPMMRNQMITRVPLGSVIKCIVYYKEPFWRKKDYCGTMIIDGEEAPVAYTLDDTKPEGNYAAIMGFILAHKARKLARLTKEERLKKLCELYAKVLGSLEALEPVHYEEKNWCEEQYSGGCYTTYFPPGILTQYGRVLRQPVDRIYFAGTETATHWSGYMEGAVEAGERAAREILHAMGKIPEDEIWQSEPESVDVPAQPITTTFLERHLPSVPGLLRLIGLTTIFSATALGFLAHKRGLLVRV
Kind of data set: Inhibition of human MAO-B at 100 uM using p-tyramine as substrate incubated for 15 mins followed by substrate addition measured for 20 mins by fluorescence assay relative to control.

The target in data set [12] is Cholinesterase (Equus caballus) (UniProt P81908). The data set is described as follows: Inhibition of equine serum BuChE at 100 uM using butyrylthiocholine iodide as substrate incubated for 5 mins followed by substrate addition measured after 180 secs by Ellman's method relative to control.
Cholinesterase (Equus caballus), sequence (P81908 whole entry): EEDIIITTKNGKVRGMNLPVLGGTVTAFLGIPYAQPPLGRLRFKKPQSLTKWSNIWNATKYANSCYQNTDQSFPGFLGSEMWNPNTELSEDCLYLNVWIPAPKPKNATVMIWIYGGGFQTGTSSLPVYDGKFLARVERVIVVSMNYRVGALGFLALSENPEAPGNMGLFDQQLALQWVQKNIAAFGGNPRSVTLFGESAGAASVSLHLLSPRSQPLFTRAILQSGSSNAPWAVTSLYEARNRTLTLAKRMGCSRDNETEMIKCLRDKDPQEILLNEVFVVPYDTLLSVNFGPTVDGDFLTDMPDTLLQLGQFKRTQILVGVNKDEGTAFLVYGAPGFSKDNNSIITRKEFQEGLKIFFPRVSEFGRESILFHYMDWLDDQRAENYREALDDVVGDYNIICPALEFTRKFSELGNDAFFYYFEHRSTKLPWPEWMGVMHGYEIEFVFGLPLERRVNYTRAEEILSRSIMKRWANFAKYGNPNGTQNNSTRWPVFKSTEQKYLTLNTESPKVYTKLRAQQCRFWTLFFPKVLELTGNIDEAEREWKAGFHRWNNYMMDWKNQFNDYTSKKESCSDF

Acetylcholinesterase, sequence (P22303 whole entry): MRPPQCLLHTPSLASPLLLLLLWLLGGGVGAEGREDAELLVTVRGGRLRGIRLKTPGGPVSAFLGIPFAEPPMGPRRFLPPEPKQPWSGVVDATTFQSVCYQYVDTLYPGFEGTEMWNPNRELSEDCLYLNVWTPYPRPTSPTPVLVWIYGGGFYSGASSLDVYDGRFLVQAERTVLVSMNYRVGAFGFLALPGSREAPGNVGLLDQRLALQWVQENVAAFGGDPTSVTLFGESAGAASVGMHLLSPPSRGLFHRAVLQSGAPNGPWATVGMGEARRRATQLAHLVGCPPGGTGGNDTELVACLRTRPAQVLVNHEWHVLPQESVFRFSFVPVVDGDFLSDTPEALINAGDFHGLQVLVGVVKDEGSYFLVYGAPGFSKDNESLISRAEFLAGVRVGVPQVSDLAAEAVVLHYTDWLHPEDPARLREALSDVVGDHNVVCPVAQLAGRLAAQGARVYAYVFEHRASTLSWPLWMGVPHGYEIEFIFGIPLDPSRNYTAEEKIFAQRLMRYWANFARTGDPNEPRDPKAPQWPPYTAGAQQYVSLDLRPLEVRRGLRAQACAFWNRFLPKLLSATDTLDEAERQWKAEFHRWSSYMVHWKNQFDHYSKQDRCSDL
Cholinesterase, sequence (P06276 whole entry): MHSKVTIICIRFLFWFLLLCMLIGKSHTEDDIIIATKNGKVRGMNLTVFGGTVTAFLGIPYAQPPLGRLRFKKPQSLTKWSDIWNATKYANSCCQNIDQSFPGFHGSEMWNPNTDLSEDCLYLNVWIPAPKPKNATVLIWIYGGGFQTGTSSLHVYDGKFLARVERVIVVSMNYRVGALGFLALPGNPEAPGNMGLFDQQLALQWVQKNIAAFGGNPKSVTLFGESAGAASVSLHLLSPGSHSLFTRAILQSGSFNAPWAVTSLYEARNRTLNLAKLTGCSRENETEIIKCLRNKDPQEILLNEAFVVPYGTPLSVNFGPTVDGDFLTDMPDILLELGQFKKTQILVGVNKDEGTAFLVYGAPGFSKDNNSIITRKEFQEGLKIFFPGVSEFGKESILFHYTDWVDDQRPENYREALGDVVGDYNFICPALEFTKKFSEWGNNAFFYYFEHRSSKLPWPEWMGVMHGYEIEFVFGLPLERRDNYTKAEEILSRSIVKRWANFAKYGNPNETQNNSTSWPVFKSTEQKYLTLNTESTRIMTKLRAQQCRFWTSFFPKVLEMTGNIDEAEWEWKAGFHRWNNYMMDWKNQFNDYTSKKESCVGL

With `COc1cc2c(cc1OC)C(=O)C(CC1CCN(Cc3ccccc3)CC1)C2` (configuration not stated) [DONEPEZIL], in data set [1], the outcome was Active. In addition, the inhibition entry in data set [2] is “inactive”. Also, the half-life in [3] turned out to be 1.21 h.

As to `CC(C)(C)c1cc(C(=O)NCC2CCN(Cc3ccccc3)CC2)cc(C(C)(C)C)c1O`, the Activity (mmolequiv/mmol) in data set [4] came out at 1.47; in [8] it was 0.65. The inhibition in [5] is 15.7%; in data set [6] it was 38.1%; in [9], 23.1%; in [12] it was 8.61%. For the same compound, in data set [7], the Activity was determined as 48.2%. Moreover, the inhibition at 100 µM was found to be 15.8% in data set [10] and 16.1% in data set [11].
